According to patent publication US20230416297A1, “ANDROGEN RECEPTOR MODULATORS” (TRUSTEES OF DARTMOUTH COLLEGE, priority 2020, published 2023):
Where “and” joins values, the source holds several entries; their conditions need not be identical. Equal values may be shown once.

Tests used:
androgen receptor [1] = biological target: T1, androgen receptor (Homo sapiens, UniProt P10275); assay: AR binding (Ki, Table A)
T1 sequence (P10275 1-920): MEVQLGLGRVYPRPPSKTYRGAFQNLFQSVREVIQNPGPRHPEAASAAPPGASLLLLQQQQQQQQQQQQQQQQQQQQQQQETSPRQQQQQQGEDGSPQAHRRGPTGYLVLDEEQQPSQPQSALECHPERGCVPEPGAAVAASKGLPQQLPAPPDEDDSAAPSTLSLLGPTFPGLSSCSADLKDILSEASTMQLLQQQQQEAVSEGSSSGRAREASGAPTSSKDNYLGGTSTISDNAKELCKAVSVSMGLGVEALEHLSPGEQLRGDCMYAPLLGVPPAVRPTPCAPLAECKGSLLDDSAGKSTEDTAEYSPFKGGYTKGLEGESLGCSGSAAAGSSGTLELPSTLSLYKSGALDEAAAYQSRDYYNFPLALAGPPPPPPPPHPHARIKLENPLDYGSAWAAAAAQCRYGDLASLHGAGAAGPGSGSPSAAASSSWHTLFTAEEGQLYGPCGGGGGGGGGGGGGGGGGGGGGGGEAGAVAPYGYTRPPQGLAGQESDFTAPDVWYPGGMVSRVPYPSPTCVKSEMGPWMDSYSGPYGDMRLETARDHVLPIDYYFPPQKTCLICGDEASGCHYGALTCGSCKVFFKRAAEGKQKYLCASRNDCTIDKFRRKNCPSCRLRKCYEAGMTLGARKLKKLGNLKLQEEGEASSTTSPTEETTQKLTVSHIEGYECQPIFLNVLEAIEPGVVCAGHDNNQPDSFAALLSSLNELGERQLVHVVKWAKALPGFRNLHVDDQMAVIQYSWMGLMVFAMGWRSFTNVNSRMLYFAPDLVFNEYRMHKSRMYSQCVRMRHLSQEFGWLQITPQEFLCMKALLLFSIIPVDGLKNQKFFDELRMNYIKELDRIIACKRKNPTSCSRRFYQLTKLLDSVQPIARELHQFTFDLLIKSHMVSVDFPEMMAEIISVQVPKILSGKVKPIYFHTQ
Text: (§1) The activity of a compound can be determined using various known methods. For example, AR assays can be used. Such AR assays include binding assays using, for example, cells transfected with the human androgen receptor. Several cell based model systems that allow sensitive detection and monitoring of steroids or other compounds with AR bioactivity are known. Most cell based AR reporter models use transgenic gene constructs that include an androgen response element (ARE) that controls reporter gene (e.g., lucifersrase) expression. For example, a human AR Reporter Assay System is commercially available from Indigo Biosciecnes. The principle application of such an assay product is to quantify functional activities, either agonist or antagonist, that a compound may exert against the human androgen receptor. […] In addition, the anti-proliferative activity of a compound can be determined using various known methods, including in vitro and in vivo antiproliferative assays using cancer cell lines such as a prostate cancer cell line.

androgen receptor [2] = biological target: T1, androgen receptor; assay: human AR agonist assay (Indigo Biosciences); type: cell-based; design: purchased Indigo Biosciences; settings: for HillSlope: agonist mode, Table 1 / FIG. 1
Text: as §1
(§2) The activity of certain compounds were tested in a human AR agonist assay and a human AR antagonist assay (Indigo Biosciences).

androgen receptor [3] = biological target: T1, androgen receptor; assay: human AR antagonist assay (Indigo Biosciences); type: cell-based; design: purchased Indigo Biosciences
Text: as §1, §2

[4] = antagonist mode, Table 2 / FIG. 2
[5] = antagonist mode, Table 3 / FIG. 3

| Compound | Ki (androgen receptor [1]) [nM] | HillSlope (androgen receptor [2]) | IC50 (androgen receptor [3]; Table A) [nM] | HillSlope (androgen receptor [3]; [4]) | IC50 (androgen receptor [3]; [4]) [nM] | further results |
| --- | --- | --- | --- | --- | --- | --- |
| CC(=O)O[C@@H]1CC2=C3CCC4=CC(=O)CC[C@@H]4[C@@]3(C)CC[C@]2(C)C1 [Compound 101, (9R,10S,13R,16S)-9,13-dimethyl-3-oxo-2,3,6,7,9,10,11,12,13,15,16,17-dodecahydro-1H-cyclopenta[a]phenanthren-16-yl acetate] | 7350 | 1.063 | 413 | 2.100 | 413 | EC50 (androgen receptor [2]): 10000 nM |
| C[C@]12CC[C@@]3(C)C(=C1C[C@@H](O)C2)CCC1=CC(=O)CC[C@@H]13 [Compound 102, (9R,10S,13R,16S)-16-hydroxy-9,13-dimethyl-1,2,6,7,9,10,11,12,13,15,16,17-dodecahydro-3H-cyclopenta[a]phenanthren-3-one] | 919 | 1.300 | 654 | 1.728 | 654 | EC50 (androgen receptor [2]): 23000 nM |
| C[C@]12CC[C@@]3(C)C(=C1C[C@H](O)C2)CCC1=CC(=O)CC[C@@H]13 [Compound 103, (9R,10S,13R,16R)-16-hydroxy-9,13-dimethyl-1,2,6,7,9,10,11,12,13,15,16,17-dodecahydro-3H-cyclopenta[a]phenanthren-3-one] | 3460 | ≈1.247 | 1240 | 1.906 | 1240 | – |
| C[C@@]12CC[C@]3(C)C(=C1C[C@H](O)C2)CCC1=CC(=O)CC[C@H]13 [Compound 104] | – | – | 4300 | – | – | – |
| C[C@@]12CC[C@]3(C)C(=C1C[C@@H](O)C2)CCC1=CC(=O)CC[C@H]13 [Compound 105] | – | – | 1500 | – | – | – |
| C[C@]12CC[C@@]3(C)C(=C1C[C@@H](O)C2)CCC1=C[C@@H](O)CC[C@@H]13 [Compound 107] | – | – | 4800 | – | – | – |
| CC(C)CCC[C@]12CC[C@@]3(C)C(=C1C[C@@H](O)C2)CCC1=CC(=O)CC[C@@H]13 [Compound 108] | – | – | – | – | – | HillSlope (androgen receptor [3]; [5]): 1.225 |
| CC(C)CCC[C@]12CC[C@@]3(C)C(=C1C[C@@H](O)C2)CCC1=CC(=O)CC[C@@H]13 [Compound 110] | – | – | – | – | – | HillSlope (androgen receptor [3]; [5]): 0.6338 |
| CC(C)(O)C(=O)Nc1ccc([N+](=O)[O-])c(C(F)(F)F)c1 [hydroxyflutamide, reference compound] | – | – | – | – | – | HillSlope (androgen receptor [3]): 1.305 and 1.653 |
